The text below walks through data of US12195804B2, “Treatment of squamous cell carcinoma” (Board of Regents, The University of Texas System, priority 2018, dated 2025).

Test [1] relates to HN31 and UM22A orthotopic xenografts. As to the kind of experiment: Orthotopic tongue xenograft models of NOTCH1MUT HNSCC. In kind it is in vivo, athymic nude mice. How it is done:
FIGS. 8A-8D: PI3K/mTOR pathway inhibitors cause apoptosis and reduce tumor size in NOTCH1^MUT head and neck squamous cell carcinoma (HNSCC) in vivo. FIGS. 8A and 8B. The NOTCH1^MUT cell lines HN31 (FIG. 8A) and UMSCC22A (UM22A; FIG. 8B) were injected subcutaneously (SQ) into athymic nude mice. After tumors reached 150 mm^3, the mice were randomized to receive either vehicle control (2-hydroxypropyl-β-cyclodextrin) or 1 mg/kg GSK2126458 (GSK212) by oral gavage daily for 28 days. Tumor sizes were measured and tumor volumes were calculated at the indicated times, and the percent change in tumor volume at the end of therapy was calculated using the formula (final tumor volume−initial tumor volume/initial tumor volume)×100%. The percentages of TUNEL-positive cells were calculated from image quantification at 40× magnification. FIGS. 8C and 8D. HN31 (FIG. 8C) and UM22A (FIG. 8D) were implanted orthotopically (OT) into the anterior tongues of athymic nude mice. […] Tumor sizes were measured, and tumor volumes and percent changes in tumor volumes were calculated as above. […] The percentages of TUNEL-positive cells were calculated as described above. Data are means±standard deviations from 5 mice per group; p values were calculated using an unpaired t-test with the Welch correction. […]

For test [2], the system named is HNSCC cell lines. As to the kind of experiment: CellTiter-Glo cell viability assay. Conditions: 0-200 nM, 72 hours. In kind it is cell-based, human. On the procedure:
Cell viability assay. […] A CellTiter-Glo luminescent cell viability assay (Promega, Madison, WI) was performed as described previously (Castel et al., 2016; Muellner et al., 2011). Inhibitory concentration (ICs) and area under the curve (AUC) values were calculated using the drexplorer R package with a best-fit dose-response model (Zumsteg et al., 2016). The combination indices were calculated using the Chou-Talalay method (Cal et al., 2017) in CalcuSyn (Biosoft, Cambridge, UK). We tested the reproducibility and robustness of the data generated using three quality control parameters as described previously (Bohnacker et al., 2017). These parameters were the concordance correlation coefficient, location shift, and maximum standard deviation between two biological replicates for three technical and two biological replicates. Based on heuristics from our previous screening studies in lung cancer (Bohnacker et al., 2017), the cut-offs for reproducibility were a concordance correlation coefficient greater than 0.8, a location shift less than 0.9, and a standard deviation less than 0.23 based on the normal mixture fit model. Experiments not satisfying these criteria were repeated. The replicate with the smallest experimental variation measured by the median of standard deviation was chosen as a representative of the replicates, and its IC values served as the final values for subsequent analysis.
Cell lines were classified as sensitive based on IC70 values less than the peak plasma concentration for each drug. To determine if cross-comparison of the PI3K/mTOR inhibitors as a class was feasible, their drug sensitivity patterns were compared with those of three cell cycle kinase inhibitors tested previously (Zhang et al., 2017). The PI3K/mTOR pathway inhibitors clustered separately from the cell cycle inhibitors (FIG. 12C).

`COc1ncc(-c2ccc3nccc(-c4ccnnc4)c3c2)cc1NS(=O)(=O)c1ccc(F)cc1F` [GSK2126458]: the “tumor size compared with vehicle” value in test [1] (3 mg/kg oral gavage daily 28 days) is “significantly reduced tumor size”. Further, the “apoptosis in tumors (TUNEL staining)” value in test [1] (3 mg/kg oral gavage, end of treatment) is on record as “underwent apoptosis”. For the same compound, the “cell viability, NOTCH1MUT and NOTCH1WT cell lines” value in test [2] is listed as “differential effects”.
